“Also recorded” adds a separate entry of the source.
What was measured:
[1] = molecular target: T1, N-myristoyltransferase (NMT) (Mus musculus, UniProt O70310); assay: Inhibition of N-myristoyltransferase (NMT) solubilized from L 1210 microsomes, in competition with peptide substrate G8R; format: biochemical, murine (L 1210); details: for IC50: NMT from L 1210 microsomes, peptide substrate G8R, 10 min at 37° C.
T1 construct: The supernatant comprises the whole of the NMT activity present in the L 1210 microsomes; endogenous in cells; host or cells: L 1210 murine leukemia cells; Triton 770-solubilized microsomes (105,000 g supernatant)
T1 sequence (O70310 1-496): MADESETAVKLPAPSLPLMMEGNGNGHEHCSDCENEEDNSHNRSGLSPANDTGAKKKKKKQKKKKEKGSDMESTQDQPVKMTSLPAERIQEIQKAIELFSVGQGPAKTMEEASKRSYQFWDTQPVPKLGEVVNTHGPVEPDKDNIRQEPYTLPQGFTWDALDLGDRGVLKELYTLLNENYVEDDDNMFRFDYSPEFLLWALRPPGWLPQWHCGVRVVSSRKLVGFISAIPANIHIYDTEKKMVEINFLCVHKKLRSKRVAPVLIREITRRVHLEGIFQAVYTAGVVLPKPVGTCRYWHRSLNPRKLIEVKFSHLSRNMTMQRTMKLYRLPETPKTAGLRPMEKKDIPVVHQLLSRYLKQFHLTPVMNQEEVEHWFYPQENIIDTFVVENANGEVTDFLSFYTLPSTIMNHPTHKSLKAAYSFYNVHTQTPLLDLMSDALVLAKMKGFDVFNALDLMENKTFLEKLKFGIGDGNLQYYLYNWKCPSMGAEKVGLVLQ
Protocol: Leukemic cells of murine origin (L 1210) are cultured in 500- to 1000-ml roller bottles in a medium comprising: RPMI 1640 medium (Gibco); 10% fetal calf serum; 50 units/ml of penicillin; 50 μM streptomycin; 2 mM glutamine; and 10 mM HEPES (Gibco). The cells grow with continuous agitation at 37° C. in an atmosphere of 5% CO2 /95% air. The cells are collected and washed. The final pellet, typically containing 2.5×10^11 cells is resuspended in a lysis buffer [50 mM Tris, pH 7.9; 1 mM DTT; 1 mM EDTA; and 250 mM sucrose]. The cells are lysed and homogenized. The microsomes (vesiculated endoplasmic reticulum) are collected by centrifugation at 105,000 g as a pellet.
NMT is a membrane enzyme. To solubilize this enzyme, this suspension is then diluted to 2/3 in a solubilization buffer [50 mM HEPES, pH 7.5, 1 mM EDTA, 1 mM DTT, 10% glycerol and 3% Triton 770] and maintained for 30 min at 4° C. with stirring. This suspension is then centrifuged again at 105,000 g for 75 min. The material insoluble in the detergent sediments as a pellet. The supernatant comprises the whole of the NMT activity present in the L 1210 microsomes.
The compounds are then tested on the supernatant in competition with the peptide substrate Gly-Asn-(Ala)4 -(Arg)2 ("G8R") according to the conditions which follow, as described by TOWLER et al. (PNAS, (1987), 84, 2708-2711). Myristoylcoenzyme A is synthesized enzymatically immediately before use by incubation of myristate with ATP, Coenzyme A (lithium salt) and Pseudomonas Acyl-Coa synthetase (20 min at 30° C.). The peptide substrate and the biological source as obtained above are then added. The mixture is incubated for 10 min at 37° C.; the reaction is then stopped with 110 μl of methanol and 10 μl of trichloroacetic acid. The medium is left at 4° C. for 10 min and then centrifuged at 10,000 g for 5 min. An aliquot (30 μl) of the final supernatant is injected into an HPLC system equipped with a μBondapak column (Waters) and developed with a linear gradient as described by Towler et al. (PNAS, (1987), 84, 2708-11). Detection of the acylated peptide is performed using a radioactive line detector (Berthold) by means of the addition of 5 ml/min of scintillation fluid (Zinsser). The acylated peptide is eluted at 85% acetonitrile-TFA/15% H20-TFA.
The compounds tested as inhibitors are suspended in a 0.1% solution of Triton 770 after a brief sonication in the cold state. 10 μl of the solution of inhibitor are added to the reaction medium. The experimental conditions are identical to those described above. The activity of the compound is evaluated on the basis of the decrease in control activity, incubated under the same conditions but in the presence of the solution of suspension.

L 1210 cells = assay: Cytotoxicity, colorimetric test (ALLEY et al.), L 1210; format: cell-based, mouse; details: for IC50: Mus musculus, L1210, concentration inhibiting 50% of cell growth, 9 concentrations
Protocol: (§1) The cytotoxicity of the compounds is assessed using the calorimetric test described by ALLEY et al. (Cancer Res., (1988) 48, 589-601). This automated test is routinely used on 2 cell lines: L 1210 (mouse leukemia) and HL 60 (human promyelocyte). On each of these lines, the cytotoxicity is assessed using 9 concentrations of the compounds. The IC50 is the concentration inhibiting 50% of cell growth.

HL 60 cells = assay: Cytotoxicity, colorimetric test (ALLEY et al.), HL 60; format: cell-based, human; details: for IC50: Homo sapiens, HL-60, concentration inhibiting 50% of cell growth, 9 concentrations
Protocol: as §1

[2] = compared with N-myristoylglycine

Row | Compound | IC50 [1] [µM] | inhibition of NMT activity (in words) ([1]; enzyme extracted from L 1210 cells) | activity greater than that measured for N-myristoylglycine ([1]; ratio of IC50 versus N-myristoylglycine) | IC50 (L 1210 cells) [µM] | cytotoxicity on L 1210 cells (in words) (L 1210 cells; [2]) | IC50 (HL 60 cells) [µM] | cytotoxicity on HL 60 cells (in words) (HL 60 cells; [2])
1 | CCCCCCCCCCCCCC(=O)N[C@@H](Cc1ccccc1)C(=O)O [N-myristoyl-(S)-phenylalanine] | 200 | strongly inhibits its activity; also recorded: markedly greater inhibition of the activity of this enzyme than the use of compounds described in the prior art | 15 -fold | 29.5 | markedly greater than that due to N-myristoylglycine; also recorded: markedly greater cytotoxicity than N-myristoylglycine | 12.8 | markedly greater than that due to N-myristoylglycine; also recorded: markedly greater cytotoxicity than N-myristoylglycine
2 | CCCCCCCCCCCCCC(=O)NCC(=O)O [N-myristoylglycine, reference compound] | 3000 | – | – | 48.4 | – | 20.5 | –

— patent publication US5164414A, “Use of N-myristoyl-(S)-phenylalanine for the treatment of diseases involving myristoylation” (Adir Et Compagnie, priority 1990, dated 1992)
